According to US12540120B2, “Herbicidal compounds” (SYNGENTA CROP PROTECTION AG, priority 2019, dated 2026):

What was measured:
Assay type in all cases: in vivo
[1] = test system: Ipomoea hederacea (IPOHE); assay: B3 Post-Emergence Efficacy—Test 3; conditions: post-emergence application, 250 g/ha, evaluated after 13 days (Test 3)
Protocol: (§1) B3 Post-Emergence Efficacy—Test 3 Seeds of a variety of test species are sown in standard soil in pots:—Amaranthus retoflexus (AMARE), Setaria faberi (SETFA), Echinochloa crus-galli (ECHCG), Ipomoea hederacea (IPOHE), Zea Mays (ZEAMX), Abutilon theophrasti (ABUTH). After 8 days cultivation (post-emergence) under controlled conditions in a glasshouse (at 24/16° C., day/night; 14 hours light; 65% humidity), the plants are sprayed with an aqueous spray solution derived from the formulation of the technical active ingredient in acetone/water (50:50) solution containing 0.5% Tween 20 (polyoxyethylene sorbitan monolaurate, CAS RN 9005-64-5). Compounds are applied at 250 g/ha. The test plants are then grown in a glasshouse under controlled conditions in a glasshouse (at 24/16° C., day/night; 14 hours light; 65% humidity) and watered twice daily. After 13 days, the test is evaluated for the percentage damage caused to the plant. The biological activities are assessed on a five point scale (5=80-100%; 4=60-79%; 3=40-59%; 2=20-39%; 1=0-19%). A blank value in the table is indicative that the compound was not tested on that species.

[2] = test system: Zea Mays (ZEAMX); assay: B3 Post-Emergence Efficacy—Test 3; conditions: post-emergence application, 250 g/ha, evaluated after 13 days (Test 3)
Protocol: as §1

[3] = test system: Setaria faberi (SETFA); assay: B3 Post-Emergence Efficacy—Test 3; conditions: post-emergence application, 250 g/ha, evaluated after 13 days (Test 3)
Protocol: as §1

[4] = test system: Amaranthus retoflexus (AMARE); assay: B3 Post-Emergence Efficacy—Test 3; conditions: post-emergence application, 250 g/ha, evaluated after 13 days (Test 3)
Protocol: as §1

[5] = test system: Echinochloa crus-galli (ECHCG); assay: B3 Post-Emergence Efficacy—Test 3; conditions: post-emergence application, 250 g/ha, evaluated after 13 days (Test 3)
Protocol: as §1

[6] = test system: Abutilon theophrasti (ABUTH); assay: B3 Post-Emergence Efficacy—Test 3; conditions: post-emergence application, 250 g/ha, evaluated after 13 days (Test 3)
Protocol: as §1

[7] = test system: Ipomoea hederacea (IPOHE); assay: B6 Pre-Emergence Efficacy—Test 3; conditions: pre-emergence application, 250 g/ha, evaluated after 13 days (Test 3)
Protocol: (§2) B6 Pre-Emergence Efficacy—Test 3 Seeds of a variety of test species were sown in standard soil in pots: Amaranthus retoflexus (AMARE), Setaria faberi (SETFA), Echinochloa crus-galli (ECHCG), Ipomoea hederacea (IPOHE), Zea Mays (ZEAMX), Abutilon theophrasti (ABUTH). After cultivation for one day (pre-emergence) under controlled conditions in a glasshouse (at 24/16° C., day/night; 14 hours light; 65% humidity), the plants were sprayed with an aqueous spray solution derived from the formulation of the technical active ingredient in acetone/water (50:50) solution containing 0.5% Tween 20 (polyoxyethelyene sorbitan monolaurate, CAS RN 9005-64-5). Compounds are applied at 250 g/ha. The test plants were then grown in a glasshouse under controlled conditions (at 24/16° C., day/night; 14 hours light; 65% humidity) and watered twice daily. After 13 days, the test is evaluated for the percentage damage caused to the plant. The biological activities are assessed on a five point scale (5=80-100%; 4=60-79%; 3=40-59%; 2=20-39%; 1=0-19%). A blank value in the table is indicative that the compound was not tested on that species.

[8] = test system: Zea Mays (ZEAMX); assay: B6 Pre-Emergence Efficacy—Test 3; conditions: pre-emergence application, 250 g/ha, evaluated after 13 days (Test 3)
Protocol: as §2

[9] = test system: Setaria faberi (SETFA); assay: B6 Pre-Emergence Efficacy—Test 3; conditions: pre-emergence application, 250 g/ha, evaluated after 13 days (Test 3)
Protocol: as §2

[10] = test system: Amaranthus retoflexus (AMARE); assay: B6 Pre-Emergence Efficacy—Test 3; conditions: pre-emergence application, 250 g/ha, evaluated after 13 days (Test 3)
Protocol: as §2

[11] = test system: Echinochloa crus-galli (ECHCG); assay: B6 Pre-Emergence Efficacy—Test 3; conditions: pre-emergence application, 250 g/ha, evaluated after 13 days (Test 3)
Protocol: as §2

[12] = test system: Abutilon theophrasti (ABUTH); assay: B6 Pre-Emergence Efficacy—Test 3; conditions: pre-emergence application, 250 g/ha, evaluated after 13 days (Test 3)
Protocol: as §2

| SMILES | percentage damage caused to the plant, five point scale, IPOHE [1] | percentage damage caused to the plant, five point scale, ZEAMX [2] | percentage damage caused to the plant, five point scale, SETFA [3] | percentage damage caused to the plant, five point scale, AMARE [4] | percentage damage caused to the plant, five point scale, ECHCG [5] | percentage damage caused to the plant, five point scale, ABUTH [6] | percentage damage caused to the plant, five point scale, IPOHE [7] | percentage damage caused to the plant, five point scale, ZEAMX [8] | percentage damage caused to the plant, five point scale, SETFA [9] | percentage damage caused to the plant, five point scale, AMARE [10] | percentage damage caused to the plant, five point scale, ECHCG [11] | percentage damage caused to the plant, five point scale, ABUTH [12] |
| --- | --- | --- | --- | --- | --- | --- | --- | --- | --- | --- | --- | --- |
| Cc1ccc(-c2ccc(CCc3c(Cl)ccc(F)c3-c3c(O)c(C)nn(C)c3=O)cc2)o1 [Compound A-1.381] | 4 (4=60-79%) | 1 (1=0-19%) | 2 (2=20-39%) | 4 (4=60-79%) | 0 | 3 (3=40-59%) | 3 (3=40-59%) | 1 (1=0-19%) | 0 | 3 (3=40-59%) | 0 | 1 (1=0-19%) |
| Cc1nn(C)c(=O)c(-c2c(F)ccc(Cl)c2CCc2ccc(-c3ncco3)cc2)c1O [Compound A-1.382] | 5 (5=80-100%) | 5 (5=80-100%) | 4 (4=60-79%) | 4 (4=60-79%) | 4 (4=60-79%) | 4 (4=60-79%) | 5 (5=80-100%) | 4 (4=60-79%) | 5 (5=80-100%) | 5 (5=80-100%) | 5 (5=80-100%) | 4 (4=60-79%) |
| Cc1nn(C)c(=O)c(-c2c(F)ccc(Cl)c2CCc2cnn(-c3ccccc3)c2)c1O [Compound A-1.386] | 4 (4=60-79%) | 4 (4=60-79%) | 4 (4=60-79%) | 4 (4=60-79%) | 4 (4=60-79%) | 3 (3=40-59%) | 4 (4=60-79%) | 2 (2=20-39%) | 5 (5=80-100%) | 2 (2=20-39%) | 5 (5=80-100%) | 2 (2=20-39%) |
| Cc1nn(C)c(=O)c(-c2c(F)ccc(Cl)c2CCc2cnn(C3CC3)c2)c1O [Compound A-1.387] | 4 (4=60-79%) | 4 (4=60-79%) | 4 (4=60-79%) | 4 (4=60-79%) | 4 (4=60-79%) | 4 (4=60-79%) | 5 (5=80-100%) | 4 (4=60-79%) | 5 (5=80-100%) | 5 (5=80-100%) | 5 (5=80-100%) | 4 (4=60-79%) |
| CSCc1ccc(CCc2c(Cl)ccc(F)c2-c2c(O)c(C)nn(C)c2=O)cc1 [Compound A-1.388, 4-[3-chloro-6-fluoro-2-[2-[4-(methylsulfanylmethyl)phenyl]ethyl]phenyl]-5-hydroxy-2,6-dimethyl-pyridazin-3-one] | 4 (4=60-79%) | 4 (4=60-79%) | 4 (4=60-79%) | 5 (5=80-100%) | 4 (4=60-79%) | 5 (5=80-100%) | 5 (5=80-100%) | 4 (4=60-79%) | 5 (5=80-100%) | 5 (5=80-100%) | 5 (5=80-100%) | 5 (5=80-100%) |
| Cc1nn(C)c(=O)c(-c2c(F)ccc(Cl)c2CCc2ccc(CSC(C)C)cc2)c1O [Compound A-1.389] | 5 (5=80-100%) | 5 (5=80-100%) | 5 (5=80-100%) | 4 (4=60-79%) | 5 (5=80-100%) | 4 (4=60-79%) | 5 (5=80-100%) | 4 (4=60-79%) | 5 (5=80-100%) | 5 (5=80-100%) | 5 (5=80-100%) | 3 (3=40-59%) |
| Cc1nn(C)c(=O)c(-c2c(F)ccc(C3CC3)c2CCc2ccnc(F)c2)c1O [Compound C-1.013, 4-[3-cyclopropyl-6-fluoro-2-[2-(2-fluoro-4-pyridyl)ethyl]phenyl]-5-hydroxy-2,6-dimethyl-pyridazin-3-one] | 4 (4=60-79%) | 4 (4=60-79%) | 4 (4=60-79%) | 5 (5=80-100%) | 5 (5=80-100%) | 4 (4=60-79%) | 5 (5=80-100%) | 4 (4=60-79%) | 5 (5=80-100%) | 5 (5=80-100%) | 5 (5=80-100%) | 5 (5=80-100%) |
